In patent publication US12303509B2, “Compounds for the treatment of BRAF-associated diseases and disorders” (Pfizer Inc., priority 2020, dated 2025):
pIC50: −log10 of the molar value.

Columns and labels:
[1] = biological target: full-length FLAG-tagged B-Raf(V600E) (Homo sapiens (Human), UniProt P15056, V600E); assay: BRAF V600E enzyme assay (TR-FRET competitive displacement); format: binding; details: averaged IC50; TR-FRET tracer displacement, 60 min
How it was run: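 Displacement of 50 nM Tracer 1710 from 5 nM full-length N-terminally FLAG-tagged B-Raf(V600E), detected by TR-FRET with 0.5 nM Eu anti-FLAG antibody, in 25 mM HEPES pH 7.4, 10 mM MgCl2, 2% DMSO; 60 min at ~22 °C. Compounds 11-point, 3-fold from 10 μM; IC50 from 4-parameter fit at 50 POC.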

A375 cells = assay: Cellular phospho-ERK inhibition assay in A375 cells; format: cell-based; details: A375 cells (head prints A357), 2 hours treatment, read-out: A357 cell IC50
How it was run: (§1)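 A375 (DMEM) or H1755 (RPMI) cells in 10% FBS treated 2 h at 37 °C with 9-point series, 66 pM–10 μM, 0.25% DMSO. Phospho-ERK1/2 (Thr202/Tyr204) measured by In Cell Western, normalised to GAPDH and to DMSO and 10 μM binimetinib controls; IC50 by 4-parameter fit.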

H1755 cells = assay: Cellular phospho-ERK inhibition assay in H1755 cells; format: cell-based; details: 2 hours treatment, read-out: H1755 Cell IC50
How it was run: as §1

[2] = tested on: LLC-PK1 or MDCKII cell monolayer; assay: MDR1 LLC-PK1 and BCRP MDCKII permeability assay: permeability coefficient (Papp); format: in vitro ADME; details: Papp, test concentration 1 μM, 2 hours incubation
Description: Final organic concentration in the assay was 1%.

Sequence of full-length FLAG-tagged B-Raf(V600E) (P15056 whole entry V600E): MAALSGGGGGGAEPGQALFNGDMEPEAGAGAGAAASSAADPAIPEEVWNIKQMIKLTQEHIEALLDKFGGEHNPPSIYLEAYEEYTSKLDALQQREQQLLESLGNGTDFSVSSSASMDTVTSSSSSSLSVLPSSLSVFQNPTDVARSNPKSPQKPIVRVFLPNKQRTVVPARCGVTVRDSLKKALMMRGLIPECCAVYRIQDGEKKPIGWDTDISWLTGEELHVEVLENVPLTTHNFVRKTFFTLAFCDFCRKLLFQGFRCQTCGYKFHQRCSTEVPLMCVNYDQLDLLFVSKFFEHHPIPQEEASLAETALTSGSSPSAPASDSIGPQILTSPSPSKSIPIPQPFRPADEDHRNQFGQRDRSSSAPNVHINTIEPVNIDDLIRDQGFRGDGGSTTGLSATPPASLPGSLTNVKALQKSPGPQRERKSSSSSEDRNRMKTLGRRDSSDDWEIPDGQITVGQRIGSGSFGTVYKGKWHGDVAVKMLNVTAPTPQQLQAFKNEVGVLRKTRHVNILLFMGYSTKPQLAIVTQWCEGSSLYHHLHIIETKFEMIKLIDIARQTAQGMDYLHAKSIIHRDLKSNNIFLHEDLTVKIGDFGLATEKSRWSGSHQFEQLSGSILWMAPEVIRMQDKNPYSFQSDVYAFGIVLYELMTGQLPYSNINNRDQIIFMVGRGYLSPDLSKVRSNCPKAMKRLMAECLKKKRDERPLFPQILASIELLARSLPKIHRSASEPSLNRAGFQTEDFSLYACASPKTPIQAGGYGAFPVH

SMILES | pIC50 [1] | pIC50 (A375 cells) | pIC50 (H1755 cells) | Permeability [2]
CCN(C)S(=O)(=O)Nc1ccc(F)c(Oc2ccc3ncn(C)c(=O)c3c2F)c1Cl [Example 112, N-(2-chloro-4-fluoro-3-((5-fluoro-3-methyl-4-oxo-3,4-dihydroquinazolin-6-yl)oxy)phenyl)-(N-ethyl-N-methyl)-sulfamide] | 7.70 | 7.62 | 6.98 | 28 *10^−6 cm/s
CN(C)S(=O)(=O)Nc1ccc(F)c(Oc2ccc3ncn(C)c(=O)c3c2F)c1Cl [Example 111, N-(2-chloro-4-fluoro-3-((5-fluoro-3-methyl-4-oxo-3,4-dihydroquinazolin-6-yl)oxy)phenyl)-(N,N-dimethyl)-sulfamide] | 8.00 | 7.92 | 7.10 | 29 *10^−6 cm/s
